Here are results for four compounds from PMC7551932 (Toxins, 2020).

The IC50 is the concentration needed to halve the response being measured. The low end stands for greater potency in that assay, the high end for weaker potency in that assay.

One experiment relates to hNaV1.5. Format: cell-based, human.
The test system of experiment [1] is TTX-R sodium channels (NaV1.5, NaV1.8, and NaV1.9). The class given is cell-based.
Another experiment concerns rNaV1.8. The class given is cell-based, rat.
The next experiment concerns the target T1, hNaV1.7 (Homo sapiens, UniProt Q15858).
T1 construct: expressed in transfected cells; host or cells: HEK293T
Briefly: cell-based. The class given is cell-based.

Experiment [2] concerns TTX-S sodium channels (NaV1.2–1.4, NaV1.6, and NaV1.7). The class given is cell-based.
The subject of the next experiment is hNaV1.9. Format: cell-based, human.
In experiment [3] the target is T2, NaV1.7 (Homo sapiens, UniProt Q15858). Briefly: Time course of block and washout of NaV1.7 peak current. As to conditions: 100 nM toxin, n = 3.
T2 sequence (Q07699 19-218): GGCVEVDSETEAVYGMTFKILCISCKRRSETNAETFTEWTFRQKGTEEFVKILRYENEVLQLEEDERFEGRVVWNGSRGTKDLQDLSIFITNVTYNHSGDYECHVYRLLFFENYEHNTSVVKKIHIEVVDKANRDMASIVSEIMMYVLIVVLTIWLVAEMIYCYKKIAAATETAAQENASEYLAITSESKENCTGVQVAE
T2 sequence (Q15858 other isoform, or with tags, fused parts or gaps): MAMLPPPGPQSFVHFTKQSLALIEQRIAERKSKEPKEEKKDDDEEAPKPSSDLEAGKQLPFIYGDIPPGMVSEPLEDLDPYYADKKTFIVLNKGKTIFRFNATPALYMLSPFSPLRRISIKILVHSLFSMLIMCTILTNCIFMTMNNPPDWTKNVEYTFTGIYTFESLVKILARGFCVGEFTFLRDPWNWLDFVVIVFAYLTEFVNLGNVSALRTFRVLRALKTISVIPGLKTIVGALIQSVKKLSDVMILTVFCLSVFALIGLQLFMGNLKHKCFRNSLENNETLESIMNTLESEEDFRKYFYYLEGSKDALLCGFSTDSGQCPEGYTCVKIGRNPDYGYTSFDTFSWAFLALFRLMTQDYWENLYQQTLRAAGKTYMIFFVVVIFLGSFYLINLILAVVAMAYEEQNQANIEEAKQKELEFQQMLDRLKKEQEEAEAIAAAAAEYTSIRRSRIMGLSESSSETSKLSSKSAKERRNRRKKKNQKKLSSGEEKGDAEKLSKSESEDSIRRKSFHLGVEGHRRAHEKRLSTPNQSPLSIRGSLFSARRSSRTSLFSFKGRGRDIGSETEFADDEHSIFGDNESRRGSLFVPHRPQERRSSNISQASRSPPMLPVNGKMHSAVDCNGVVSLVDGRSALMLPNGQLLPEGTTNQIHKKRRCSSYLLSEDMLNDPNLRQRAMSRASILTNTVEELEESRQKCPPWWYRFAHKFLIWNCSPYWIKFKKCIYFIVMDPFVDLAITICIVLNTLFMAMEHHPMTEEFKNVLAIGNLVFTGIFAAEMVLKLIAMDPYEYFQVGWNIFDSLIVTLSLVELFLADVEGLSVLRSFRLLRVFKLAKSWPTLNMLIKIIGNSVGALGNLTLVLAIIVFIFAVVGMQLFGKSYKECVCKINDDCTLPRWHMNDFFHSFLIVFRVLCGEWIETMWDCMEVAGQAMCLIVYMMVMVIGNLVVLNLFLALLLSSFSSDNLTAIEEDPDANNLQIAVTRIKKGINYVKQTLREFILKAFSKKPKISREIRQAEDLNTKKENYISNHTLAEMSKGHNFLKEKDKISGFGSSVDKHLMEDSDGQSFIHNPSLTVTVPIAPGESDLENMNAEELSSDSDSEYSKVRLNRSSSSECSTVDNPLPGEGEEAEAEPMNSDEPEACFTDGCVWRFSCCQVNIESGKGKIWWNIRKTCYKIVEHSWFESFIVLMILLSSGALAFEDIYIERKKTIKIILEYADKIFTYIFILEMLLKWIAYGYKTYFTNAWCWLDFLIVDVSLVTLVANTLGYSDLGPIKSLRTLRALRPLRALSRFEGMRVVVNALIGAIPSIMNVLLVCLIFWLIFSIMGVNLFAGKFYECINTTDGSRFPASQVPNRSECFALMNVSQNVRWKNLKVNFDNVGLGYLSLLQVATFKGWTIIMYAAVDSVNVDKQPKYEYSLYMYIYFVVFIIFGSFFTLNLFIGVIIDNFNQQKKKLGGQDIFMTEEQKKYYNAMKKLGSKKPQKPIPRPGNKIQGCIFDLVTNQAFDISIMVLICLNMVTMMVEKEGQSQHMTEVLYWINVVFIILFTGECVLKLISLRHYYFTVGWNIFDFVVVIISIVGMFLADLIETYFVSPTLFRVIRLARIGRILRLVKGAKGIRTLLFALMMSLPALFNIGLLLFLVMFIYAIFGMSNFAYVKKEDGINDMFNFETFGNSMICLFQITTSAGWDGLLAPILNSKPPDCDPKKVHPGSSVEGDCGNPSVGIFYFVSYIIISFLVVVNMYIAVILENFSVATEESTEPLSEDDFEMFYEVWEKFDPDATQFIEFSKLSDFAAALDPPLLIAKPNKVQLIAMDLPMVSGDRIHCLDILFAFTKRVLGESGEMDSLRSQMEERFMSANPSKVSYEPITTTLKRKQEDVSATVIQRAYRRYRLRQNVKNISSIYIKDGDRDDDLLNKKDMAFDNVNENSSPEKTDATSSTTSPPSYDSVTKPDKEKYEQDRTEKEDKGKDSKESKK
T2 sequence (O60939 30-215, further chain): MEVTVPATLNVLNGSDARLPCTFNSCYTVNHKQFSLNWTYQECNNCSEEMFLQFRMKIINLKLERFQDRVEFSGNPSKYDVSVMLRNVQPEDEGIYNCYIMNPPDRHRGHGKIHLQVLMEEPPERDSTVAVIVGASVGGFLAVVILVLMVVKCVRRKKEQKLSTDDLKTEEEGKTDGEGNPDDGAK
The target of the next experiment is T3, mNaV1.6 (Mus musculus, UniProt Q9WTU3).
T3 construct: expressed in transfected cells; host or cells: HEK293T
Briefly: cell-based. Format: cell-based.

The target in another experiment is T4, rNaV1.2 (Rattus norvegicus, UniProt P04775).
T4 construct: expressed in transfected cells; host or cells: HEK293T
Briefly: cell-based. The class given is cell-based.

In the next experiment the target is T5, rNaV1.4 (Rattus norvegicus, UniProt P15390).
T5 construct: expressed in transfected cells; host or cells: HEK293T
T5 sequence (P15390 whole entry): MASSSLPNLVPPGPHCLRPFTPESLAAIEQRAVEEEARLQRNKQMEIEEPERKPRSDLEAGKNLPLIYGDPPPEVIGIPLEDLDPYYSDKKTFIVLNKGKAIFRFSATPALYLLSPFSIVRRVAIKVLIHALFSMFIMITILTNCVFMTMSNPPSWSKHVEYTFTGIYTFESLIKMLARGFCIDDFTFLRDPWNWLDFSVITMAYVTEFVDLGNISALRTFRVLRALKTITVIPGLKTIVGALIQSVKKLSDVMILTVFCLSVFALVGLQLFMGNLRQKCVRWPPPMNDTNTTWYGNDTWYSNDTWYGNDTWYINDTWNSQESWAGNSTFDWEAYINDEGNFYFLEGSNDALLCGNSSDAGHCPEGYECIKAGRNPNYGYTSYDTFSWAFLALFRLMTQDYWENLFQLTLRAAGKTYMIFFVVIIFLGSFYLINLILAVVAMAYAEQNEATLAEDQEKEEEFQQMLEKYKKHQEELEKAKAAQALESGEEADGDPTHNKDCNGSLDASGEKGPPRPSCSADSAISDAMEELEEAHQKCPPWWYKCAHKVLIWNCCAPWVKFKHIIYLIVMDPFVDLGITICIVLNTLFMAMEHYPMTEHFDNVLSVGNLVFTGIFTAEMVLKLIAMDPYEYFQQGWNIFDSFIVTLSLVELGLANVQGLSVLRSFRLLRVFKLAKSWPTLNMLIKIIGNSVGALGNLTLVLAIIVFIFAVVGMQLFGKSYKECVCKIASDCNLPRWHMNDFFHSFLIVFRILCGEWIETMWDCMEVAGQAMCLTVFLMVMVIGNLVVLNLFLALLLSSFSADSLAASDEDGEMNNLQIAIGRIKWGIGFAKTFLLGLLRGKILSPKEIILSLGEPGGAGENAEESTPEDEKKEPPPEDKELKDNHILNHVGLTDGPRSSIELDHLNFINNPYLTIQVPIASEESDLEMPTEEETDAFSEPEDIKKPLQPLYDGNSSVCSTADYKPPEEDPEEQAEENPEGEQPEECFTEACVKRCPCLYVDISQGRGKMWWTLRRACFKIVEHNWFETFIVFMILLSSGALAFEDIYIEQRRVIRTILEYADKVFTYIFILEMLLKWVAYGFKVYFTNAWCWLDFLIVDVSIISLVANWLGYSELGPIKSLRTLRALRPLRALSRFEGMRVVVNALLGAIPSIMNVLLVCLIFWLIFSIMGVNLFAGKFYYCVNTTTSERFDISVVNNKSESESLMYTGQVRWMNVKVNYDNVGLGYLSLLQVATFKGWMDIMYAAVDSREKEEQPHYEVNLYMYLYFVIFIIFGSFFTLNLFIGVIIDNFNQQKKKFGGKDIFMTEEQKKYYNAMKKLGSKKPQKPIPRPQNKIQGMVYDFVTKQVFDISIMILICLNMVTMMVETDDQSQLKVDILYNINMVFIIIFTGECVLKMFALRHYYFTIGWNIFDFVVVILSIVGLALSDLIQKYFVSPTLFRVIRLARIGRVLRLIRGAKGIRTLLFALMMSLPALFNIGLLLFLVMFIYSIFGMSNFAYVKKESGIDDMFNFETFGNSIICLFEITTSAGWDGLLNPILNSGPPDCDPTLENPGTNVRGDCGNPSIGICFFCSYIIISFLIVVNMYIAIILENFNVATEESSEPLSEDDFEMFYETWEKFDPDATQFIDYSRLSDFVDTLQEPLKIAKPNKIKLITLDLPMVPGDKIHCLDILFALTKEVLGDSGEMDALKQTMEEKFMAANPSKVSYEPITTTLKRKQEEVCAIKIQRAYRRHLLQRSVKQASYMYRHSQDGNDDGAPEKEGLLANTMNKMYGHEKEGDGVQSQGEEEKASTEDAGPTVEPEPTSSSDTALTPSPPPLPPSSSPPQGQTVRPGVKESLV
Briefly: cell-based. Format: cell-based.

A further experiment deals with T6, rNaV1.3 (Rattus norvegicus, UniProt P08104).
T6 construct: expressed in transfected cells; host or cells: HEK293T
Briefly: cell-based. Format: cell-based.

Experiment [4] addresses T2, NaV1.7. Briefly: NaV1.7 gating kinetics (I–V, activation, inactivation, repriming). As to conditions: 10 nM toxin; for Reduction of NaV1.7 channel current: at –5 mV, n = 10.
A further experiment deals with NaV1.7 over NaV1.4. Briefly: Selectivity of NaV1.7 over NaV1.4. The class given is cell-based. As to conditions: Cl6a.
The subject of experiment [5] is NaV1.7. To be noted: cited from earlier work.
Experiment [6] concerns TTX-sensitive sodium channel. As to conditions: cited from earlier work.
The next experiment has as its system N-type calcium channels. As to conditions: cited from earlier work.

Entries after “also recorded” stand apart in the source; their conditions may differ. Where a SMILES comes first, the peptide text is derived from it. Bridges are numbered along the chain shown (N, C = ends). Where no end group is shown, it is not given here.

T1 sequence (Q15858 other isoform, or with tags, fused parts or gaps): as the sequence (Q15858 other isoform, or with tags, fused parts or gaps) above
T1 sequence (O60939 30-215, further chain): as the sequence (O60939 30-215, further chain) above
T1 sequence (Q07699 19-218, further chain): as the sequence (Q07699 19-218) above

Consider `CC[C@H](C)[C@H](NC(=O)[C@H](CCCCN)NC(=O)[C@H](Cc1c[nH]c2ccccc12)NC(=O)[C@H](CCCCN)NC(=O)[C@@H]1CSSC[C@@H]2NC(=O)[C@H](CCC(=O)O)NC(=O)[C@H](CC(N)=O)NC(=O)[C@H](CCCCN)NC(=O)CNC(=O)[C@@H]3CCCN3C(=O)[C@H]([C@@H](C)O)NC(=O)[C@@H]3CSSC[C@H](NC(=O)[C@H](C(C)C)NC(=O)[C@H](CCCNC(=N)N)NC(=O)[C@H](CC(N)=O)NC(=O)[C@@H]4CCCN4C(=O)[C@H](CSSC[C@H](NC(=O)[C@H](C)N)C(=O)N[C@@H](CCCCN)C(=O)NCC(=O)N[C@@H](C(C)C)C(=O)N[C@@H](Cc4ccccc4)C(=O)N[C@@H](CC(=O)O)C(=O)N4CCC[C@H]4C(=O)N3)NC2=O)C(=O)N[C@@H](CO)C(=O)N[C@@H](CC(=O)O)C(=O)N[C@@H](CCCCN)C(=O)N[C@@H](Cc2c[nH]cn2)C(=O)N[C@@H](CCCCN)C(=O)N[C@@H](Cc2c[nH]c3ccccc23)C(=O)N1)C(=O)O` [Cl6a] (H-ACKGVFDPCTPGKNECCPNRVCSDKHKWCKWKI-OH; disulfide 2-17, 9-22, 16-29; N-terminus and C-terminus assumed), for which the “Inhibition of hNaV1.5 current” value with hNaV1.5 is reported as “No inhibitory effects”. In addition, the “Inhibition of TTX-R sodium channels” value in experiment [1] is “not TTX-R (NaV1.5, NaV1.8, and NaV1.9)”. Further, the “Inhibition of rNaV1.8 current” value with rNaV1.8 is given as “No inhibitory effects”. In addition, at hNaV1.7, the IC50 came to 11 ± 2.5 nM and the “Inhibition of hNaV1.7 current” value is reported as “completely inhibited”. Further, the “Inhibition of TTX-S sodium channels” value in experiment [2] was “can inhibit TTX-S, but not TTX-R, sodium channels; also recorded: inhibitors of tetrodotoxin-sensitive (TTX-S), but not TTX-resistant, sodium channels; also recorded: inhibited TTX-S (NaV1.2–1.4, NaV1.6, and NaV1.7)”. Further, in the experiment with hNaV1.9, the “Inhibition of hNaV1.9 current” value is reported as “No inhibitory effects”. Also, at NaV1.7 [3] (5 min wash with bath solution), the “Reversibility of NaV1.7 inhibition on washing” value was “irreversibly inhibit NaV1.7 channel currents; also recorded: irreversible; also recorded: sustained inhibition of NaV1.7 channel currents”. For the same compound, at NaV1.7 [3] (mean ± SEM), the “τon (onset of NaV1.7 peak current inhibition)” value stood at 36.2 ± 5.3 s. Moreover, on mNaV1.6, the IC50 amounted to 9.2 ± 1.3 nM and the “Inhibition of mNaV1.6 current” value is given as “completely inhibited”. Further, on rNaV1.2, it took 56.1 ± 13.6 nM to reach half-maximal inhibition (IC50) and the “Inhibition of rNaV1.2 current” value is listed as “decreased”. Also, at rNaV1.4, the half-maximal inhibitory concentration (IC50) was determined as 480 ± 100 nM and the “Inhibition of rNaV1.4 current” value was “decreased”. On rNaV1.3, 75.9 ± 6.3 nM corresponded to half-maximal inhibition (IC50) and the “Inhibition of rNaV1.3 current” value is “decreased”. In addition, the “Voltage dependence of activation, k (toxin)” value on NaV1.7 [4] (NaV1.7, mean ± SEM, n = 6–10, control 6.2 ± 0.3 (Cl6a), 6.7 ± 0.4 (Cl6b)) was 7.3 ± 0.4 mV. The “Voltage dependence of inactivation, k (toxin)” value on NaV1.7 [4] (NaV1.7, mean ± SEM, n = 6–10, control −5.4 ± 0.3 (Cl6a), −5.2 ± 0.3 (Cl6b)) is recorded as −5.7 ± 0.4 mV. Also, on NaV1.7 [4] (NaV1.7, mean ± SEM, n = 6–10, control −19.5 ± 1.5 (Cl6a), −16.3 ± 0.4 (Cl6b)), the “Voltage dependence of activation, V1/2 (toxin)” value was −22.3 ± 1.7 mV. The “Voltage dependence of inactivation, V1/2 (toxin)” value at NaV1.7 [4] (NaV1.7, mean ± SEM, n = 6–10, control −78.3 ± 1.8 (Cl6a), −70.1 ± 1.5 (Cl6b)) was −81.6 ± 2.4 mV. In addition, the “Repriming (toxin)” value at NaV1.7 [4] (NaV1.7, recovery at −100 mV, test pulse −10 mV, mean ± SEM, n = 9 (Cl6a), n = 7 (Cl6b), control 14.9 ± 2.4 (Cl6a), 6.3 ± 0.9 (Cl6b)) is on record as 17.6 ± 2.5 ms. Also, at NaV1.7 [4], the “Reduction of NaV1.7 channel current” value is 52.3%. The “Effect on NaV1.7 activation and inactivation (gating)” value at NaV1.7 [4] (n = 6–10) is recorded as “does not alter channel activation, inactivation, or repriming kinetics; also recorded: cannot significantly change the activation kinetics”. Moreover, the “Fold selectivity over NaV1.4” value in the experiment on NaV1.7 over NaV1.4 is given as ~ 40 fold.
For the compound HWTX-IV, the “Binding site on NaV1.7” value in the experiment with NaV1.7 [5] is “site 4 toxins that interact with the DII S3–S4 linker of NaV1.7 channels”.
With “HWTX-I (ACKGVFDACTPGKNECCPNRVCSDKHKWCKWKL; ends and bridges not checked; cysteine pairing not given here; UniProt P56676 49-81, looked up)”, the “TTX-sensitive sodium channel inhibition” value in experiment [6] is “inhibitor of N-type calcium channels and a TTX-sensitive sodium channel”. Also, the “N-type calcium channel inhibition” value in the experiment with N-type calcium channels is listed as “inhibitor of N-type calcium channels”.
For `CC[C@H](C)[C@H](NC(=O)[C@H](CCCCN)NC(=O)[C@H](Cc1ccc(O)cc1)NC(=O)[C@H](CCCCN)NC(=O)[C@@H]1CSSC[C@@H]2NC(=O)[C@H](CCC(=O)O)NC(=O)[C@H](CC(=O)O)NC(=O)[C@H](CCCCN)NC(=O)CNC(=O)[C@@H]3CCCN3C(=O)[C@H]([C@@H](C)O)NC(=O)[C@@H]3CSSC[C@H](NC(=O)[C@H](C(C)C)NC(=O)[C@H](Cc4c[nH]cn4)NC(=O)[C@H](CC(N)=O)NC(=O)[C@@H]4CCCN4C(=O)[C@H](CSSC[C@H](NC(=O)[C@H](C)N)C(=O)N[C@@H](CCCCN)C(=O)NCC(=O)N[C@@H]([C@@H](C)CC)C(=O)N[C@@H](Cc4ccccc4)C(=O)N[C@@H](C(C)C)C(=O)N[C@@H]([C@@H](C)O)C(=O)N3)NC2=O)C(=O)N[C@@H](CO)C(=O)N[C@@H](CO)C(=O)N[C@@H](CCCCN)C(=O)N[C@@H](Cc2c[nH]cn2)C(=O)N[C@@H](CCCCN)C(=O)N[C@@H](Cc2c[nH]c3ccccc23)C(=O)N1)C(=O)O` [Cl6b] (H-ACKGIFVTCTPGKDECCPNHVCSSKHKWCKYKI-OH; disulfide 2-17, 9-22, 16-29), the “Reduction of NaV1.7 channel current” value on NaV1.7 [4] is 49.7%.
